Laboratory results reported in the supplement of paper PMC4862054.
Where “and” joins values, the source holds several entries; their conditions need not be identical. Equal entries are not always repeated.

Columns and labels:
Settings in all cases: incubation time: 72 h
CAL-51 = test: drug sensitivity score (DSS), CellTiter-Blue viability (DSS (AUC-based score)); higher = stronger viability inhibition; extreme values may be limits of the assay
Experimental: (§1)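 DSRT with the CellTiter-Blue (resazurin reduction) viability readout, fluorescence 560/590 nm, 72 h incubation. Plates were normalised to DMSO and benzethonium chloride controls. DSS is computed from the area under the fitted dose-response curve (5 or 9 concentrations).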

BT-474 [1] = test: as above
Experimental: as §1

BT-549 [2] = test: as above
Experimental: as §1

CAL-120 [3] = test: as above
Experimental: as §1

CAL-85-1 [4] = test: as above
Experimental: as §1

HCC1937 = test: as above
Experimental: as §1

MDA-MB-453 = test: as above
Experimental: as §1

SK-BR-3 = test: as above
Experimental: as §1

MFM-223 = test: as above
Experimental: as §1

MDA-MB-436 = test: as above
Experimental: as §1

MDA-MB-468 = test: as above
Experimental: as §1

HDQ-P1 = test: as above
Experimental: as §1

MDA-MB-231 = test: as above
Experimental: as §1

Hs578T = test: as above
Experimental: as §1

CAL-148 = test: as above
Experimental: as §1

DU-4475 [5] = test: as above
Experimental: as §1

HCC1143 [6] = test: as above
Experimental: as §1

HCC1599 [7] = test: as above
Experimental: as §1

BT-474 [8] = test: drug sensitivity score (DSS), CellTox Green (DSS (AUC-based score)); higher = stronger drug effect (viability inhibition or cytotoxicity); extreme values may be limits of the assay
How it was run: (§2)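 Breast cancer cell lines (20 µl suspension) were seeded into 384-well plates holding compound at 5 concentrations in 10-fold steps over a compound-specific 10,000-fold range, then incubated 72 h. CellTox Green fluorescence (485/520 nm) was read first, then CellTiter-Glo luminescence after 10 min at room temperature. Each plate was normalised to 0.1 % DMSO and a positive kill control. The drug sensitivity score was calculated from the area under the fitted dose-response curve.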

BT-549 [9] = test: as above
How it was run: as §2

CAL-120 [10] = test: as above
How it was run: as §2

CAL-85-1 [11] = test: as above
How it was run: as §2

MCF-10A = test: as above
How it was run: as §2

DU-4475 [12] = test: as above
How it was run: as §2

HCC1143 [13] = test: as above
How it was run: as §2

HCC1599 [14] = test: as above
How it was run: as §2

| Compound | drug sensitivity score (CAL-51) | drug sensitivity score (BT-474 [1]) | drug sensitivity score (BT-549 [2]) | drug sensitivity score (CAL-120 [3]) | drug sensitivity score (CAL-85-1 [4]) | drug sensitivity score (HCC1937) | drug sensitivity score (MDA-MB-453) | drug sensitivity score (SK-BR-3) | drug sensitivity score (MFM-223) | drug sensitivity score (MDA-MB-436) | drug sensitivity score (MDA-MB-468) | drug sensitivity score (HDQ-P1) | drug sensitivity score (MDA-MB-231) | drug sensitivity score (Hs578T) | drug sensitivity score (CAL-148) | drug sensitivity score (DU-4475 [5]) | drug sensitivity score (HCC1143 [6]) | drug sensitivity score (HCC1599 [7]) | drug sensitivity score (BT-474 [8]) | drug sensitivity score (BT-549 [9]) | drug sensitivity score (CAL-120 [10]) | drug sensitivity score (CAL-85-1 [11]) | drug sensitivity score (MCF-10A) | drug sensitivity score (DU-4475 [12]) | drug sensitivity score (HCC1143 [13]) | drug sensitivity score (HCC1599 [14]) |
| --- | --- | --- | --- | --- | --- | --- | --- | --- | --- | --- | --- | --- | --- | --- | --- | --- | --- | --- | --- | --- | --- | --- | --- | --- | --- | --- |
| CCC/C=C/C=C/C(=O)O[C@H]1/C(=C/C(=O)OC)C[C@H]2C[C@H]([C@@H](C)O)OC(=O)C[C@H](O)C[C@@H]3C[C@H](OC(C)=O)C(C)(C)[C@](O)(C[C@@H]4C/C(=C/C(=O)OC)C[C@H](/C=C/C(C)(C)[C@]1(O)O2)O4)O3 [Bryostatin 1] | 0 | 0 | 0 | 0 | 7.23 | 0 | 0 | 4.97 | 0 | 0 | 0 | 0 | 0 | 0 | 16.1 | 0 | 6.66 | 16.1 | 0 | 0 | 0 | 0 | 0 | 0 | 0 | 0 |
| C[C@]12O[C@H](C[C@]1(O)CO)n1c3ccccc3c3c4c(c5c6ccccc6n2c5c31)CNC4=O [Lestaurtinib] | 2.4 | 0 | 1.24 | 7.43 | 3.82 | 7.15 | 6.19 | 1.47 | 5.87 | 3.43 | 0 | 0 | 0 | 0 | 0 | 8.26 | 3.46 | 2.58 | 0.706 | 2.26 | 0 | 5.21 | 0 | 0 | 0 | 4.55 |
| C[C@]12C=CC(=O)C=C1CC[C@@H]1[C@@H]2[C@@H](O)C[C@@]2(C)[C@H]1CC[C@]2(O)C(=O)CO [Prednisolone] | 0 | 0 | 0 | 0 | 0 | 0 | 4.2 | 0 | 0 | 0 | 0 | 0 | 0 | 0 | 0 | 0 | 0 | 0 | 0 | 0 | 0 | 0 | 0 | 0 | 1.2 | 0 |
| Nc1ccccc1NC(=O)c1ccc(CNc2nccc(-c3cccnc3)n2)cc1 [Mocetinostat] | 5.94 | 2.91 | 7.6 | 13.4 | 8.63 | 7.41 | 12.8 | 10.9 | 3.47 | 9.06 | 7.64 | 2.86 | 6.93 | 6.43 | 8.31 | 12.9 | 6.77 | 10.1 | 2.44 | 1.91 | 3.91 | 7.11 | 0 | 0 | 0.874 | 1.87 |
| COc1ccc(-c2cc3c(C)nc(N)nc3n([C@H]3CC[C@H](OCCO)CC3)c2=O)cn1 | 21.2 | 19.6 | 19.1 | 17.7 | 16.7 | 18.2 | 24.6 | 24.9 | 19.1 | 17.9 | 17.2 | 22.5 | 19.9 | 20.1 | 18.3 | 13.7 | 13.8 | 16.2 | 11.5 | 5.99 | 0 | 4.01 | 0 | 0 | 0 | 0 |
| O=C1c2c(O)ccc(O)c2C(=O)c2c(NCCNCCO)ccc(NCCNCCO)c21 [Mitoxantrone] | 17.6 | 6.48 | 4.76 | 9.16 | 5.25 | 23.1 | 4.9 | 15.3 | 2.58 | 3.16 | 9.75 | 8.81 | 11.8 | 4.05 | 17.4 | 22.7 | 6.5 | 4.36 | 0 | 0 | 0 | 0 | 0 | 0 | 0 | 0 |
| COc1cc(CCc2cc(NC(=O)c3ccc(N4CC(C)NC(C)C4)cc3)n[nH]2)cc(OC)c1 (stereo not drawn) [AZD4547] | 2.97 | 0 | 0 | 0 | 3.12 | 0 | 5.67 | 0 | 15.1 | 0 | 0 | 0 | 0 | 0 | 2.37 | 3.06 | 0 | 6.62 | 0 | 0 | 0.0106 | 0 | 0 | 0 | 3.67 | 0 |
| Cc1nc(Nc2ncc(C(=O)Nc3c(C)cccc3Cl)s2)cc(N2CCN(CCO)CC2)n1 [Dasatinib] | 12.4 and 11.1 | 0 | 8.07 and 9.99 | 11.2 and 13.7 | 8.12 and 9 | 0 | 0 | 0 | 2.5 and 1.76 | 7.53 and 9.46 | 0 | 19.3 and 21.9 | 9.89 and 15.2 | 10.6 and 12.3 | 0 | 0 | 6.83 and 7.93 | 0 | 0 | 2.37 | 0 | 6.5 | 7.15 | 0 | 0 | 0 |
| O=S(=O)(c1cccc2cnccc12)N1CCCNCC1 [Fasudil] | 0 | 0 | 0 | 0 | 0 | 0 | 0.912 | 0 | 1.41 | 0 | 0 | 0 | 0 | 0 | 0 | 0 | 0 | 0 | 0 | 0 | 0 | 0 | 0 | 0 | 0 | 0 |
| CC[C@@]1(O)C(=O)OCc2c1cc1n(c2=O)Cc2cc3c(CN(C)C)c(O)ccc3nc2-1 [Topotecan] | 5.2 | 0 | 4.7 | 8.72 | 3.4 | 13.2 | 3.26 | 11.3 | 0 | 6.23 | 11.6 | 0.903 | 3.58 | 0 | 11.5 | 11.1 | 5.56 | 3.96 | 0.158 | 0 | 3.76 | 7.11 | 1.98 | 0 | 0 | 2.71 |
| Nc1cccc2c1CN(C1CCC(=O)NC1=O)C2=O (stereo not drawn) [Lenalidomide] | 0 | 0 | 0 | 0 | 0 | 0 | 0 | 0 | 0 | 0 | 0 | 0 | 0 | 0 | 0 | 0 | 0 | 0 | 0 | 0 | 0 | 0 | 0 | 0 | 0 | 0 |
| COc1nc(N)nc2c1ncn2[C@@H]1O[C@H](CO)[C@@H](O)[C@@H]1O [Nelarabine] | 0 | 0 | 0 | 0 | 0 | 0 | 0 | 0 | 0 | 0 | 0 | 0 | 0 | 0 | 0 | 0 | 0 | 0 | 0 | 0.855 | 0 | 0 | 0 | 0 | 0 | 0 |
| Cc1c(CN2CCN(C(=O)[C@H](C)O)CC2)sc2c(N3CCOCC3)nc(-c3cnc(N)nc3)nc12 [GDC-0980] | 18.9 | 15.6 | 14.7 | 17.5 | 14.8 | 14.1 | 22.8 | 22.4 | 19.2 | 10.4 | 12.3 | 19.2 | 18.5 | 15.4 | 17.2 | 12.6 | 15.9 | 15.1 | 4.57 | 0 | 0 | 2.26 | 0 | 0 | 3.43 | 0 |
